# Laboratory results from patent US20240294548A1, “TRICYCLIC SULTAMS AND SULFAMIDES AS ANTITUMOR AGENTS” (PELOTON THERAPEUTICS INC., priority 2021, published 2024).
# Read-outs that look alike come from different tables or passages of the source.
# Legend:
# [1] = target: T1, DCAF15 (DDA1-DDB1ΔB-DCAF15Δpro) (Homo sapiens, UniProt Q66K64, DEL276-383); test: DCAF15 displacement assay (displacement FRET, probe PT7795); format: binding
# T1 construct: made in house; host or cells: Sf9 (Bac-to-Bac baculovirus)
# Source text: (§1) Proteins used for the assays were as follows: Human DDA1 (UniProt:Q9BW61), DDB1 (UniPro: Q16531), and DCAF15 (UniProt: Q66K64) coding sequences were cloned into pFastBac1 vectors and were co-expressed in Sf9 cells using Bac-to-Bac baculovirus expression system (Thermo Fisher Scientific). The expression construct for DCAF15 includes a N-terminal His6-tag to facilitate the purification.
# DCAF15 Displacement Assay (Displacement FRET KD)
# Synthesis of the probe PT7795 is described in the article.
# Binding of PT7795 to DDA1-DDB1AB-DCAF15Δpro was measured by the FRET signal between europium-labeled anti-His antibody (AD0205, Perkin Elmer) that is associated with His-tagged DCAF15 and ALX647 moiety in PT7795. […] After equilibrating for 2-3 hours at 4° C., the plate was removed from the incubator, briefly spun, then read on a Spark 10 (Tecan) at the excitation/emission wavelength of 340 nm/615 nm and 340 nm/665 nm.
# Binding of compounds in this disclosure to DCAF15 was measured in a competition by the displacement of PT7795. The concentration of PT7795 was kept at 300 nM while the concentration of a compound was varied from 0.01 to 100 μM. The incubation time was increased to 18 hours for enhanced signal to noise level.
# F=Fmin+(Fmax−Fmin)/(1+10^(logIC50−log[Compound])^n) (Equation 2)
# The Kds can then be calculated from IC50s using Equation 3 (Cheng-Prusoff equation).
# [2] = target: T2, DCAF15 RBM39 ternary complex (Homo sapiens, UniProt Q14498+Q66K64, DEL276-383); test: DCAF15 RBM39 complex formation assay (FRET); format: biochemical
# T2 construct: Amino acids 150 to 331 of RBM39 were cloned into pGEX4T3; GST (from the pGEX4T3 vector, own knowledge) followed by a TEV cleavage site (N); made in house; host or cells: Sf9 baculovirus (DDB1ΔB/DCAF15); E. coli (RBM39 R1R2)
# Source text: as §1
# DCAF15 RBM39 Complex Formation Assay
# LANCE Eu-W1024 Anti-6×His and SureLight Allophycocyanin-anti-FLAG antibodies were purchased from Perkin Elmer. Human DDB1DB and His-tagged DCAF15 were co-expressed in baculovirus/sf9 system. […] The His-tagged DCAF15 contains six histidine residues directly preceding the DCAF15 sequence without any linker. An RBM39 fragment containing RRM1 and RRM2 was expressed in E. coli.
# A compound of the present disclosure in DMSO (2 μL) was transferred to a 384-well assay plate. Compound was added in 14 points, 3-fold serial dilution (1 μM to 0.6 pico molar) in DMSO. […] FRET assay buffer (25 mM HEPES, pH 7.5, 100 mM NaCl, […], 0.5 mM TCEP, 0.005% Tween-20, 0.2 nM Eu-W1024 Anti-6×His, 50 nM SureLight Allophycocyanin-anti-FLAG, 20 nM DDB1DB/DCAF15, 50 nM RBM39 R1R2) was added and the resulting solution was incubated overnight at 4° C. […] Low signal controls containing no compound and high signal controls containing 10 mM indisulam were measured for each plate.
# EC50 values were calculated using Dotmatics template equation for 4-parameter fit.
# Results are expressed as % formation using the following equation: […]
# [3] = displacement of PT7795 (300 nM), compound 0.01 to 100 μM, 18 hours incubation, read-out: DCAF15 displacement IC50
# [4] = FRET ratio, 20 nM DDB1DB/DCAF15, 50 nM RBM39 R1R2, overnight at 4° C., read-out: DCAF15 RBM39 ternary complex EC50
# T2 sequence (Q66K64 with tags, fused parts or gaps DEL276-383): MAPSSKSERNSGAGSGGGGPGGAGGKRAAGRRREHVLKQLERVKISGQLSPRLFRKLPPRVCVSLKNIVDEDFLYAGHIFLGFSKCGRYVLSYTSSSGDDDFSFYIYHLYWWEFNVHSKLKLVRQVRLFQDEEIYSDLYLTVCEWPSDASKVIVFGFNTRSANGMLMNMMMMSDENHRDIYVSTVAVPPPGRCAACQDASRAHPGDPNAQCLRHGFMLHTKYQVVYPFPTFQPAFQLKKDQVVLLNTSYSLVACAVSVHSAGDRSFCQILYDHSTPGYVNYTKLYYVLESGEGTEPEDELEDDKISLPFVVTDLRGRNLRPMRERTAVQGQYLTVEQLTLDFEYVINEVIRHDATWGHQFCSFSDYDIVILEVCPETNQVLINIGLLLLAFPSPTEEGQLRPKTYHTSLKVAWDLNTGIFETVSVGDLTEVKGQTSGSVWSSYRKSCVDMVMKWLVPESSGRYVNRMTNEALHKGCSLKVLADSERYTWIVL
# T2 sequence (Q14498 150-331, stated change not applied): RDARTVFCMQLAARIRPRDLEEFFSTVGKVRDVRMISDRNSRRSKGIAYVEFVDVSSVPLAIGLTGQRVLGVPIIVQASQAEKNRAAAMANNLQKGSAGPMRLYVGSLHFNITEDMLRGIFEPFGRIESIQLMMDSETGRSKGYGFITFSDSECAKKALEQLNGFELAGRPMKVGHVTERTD
SMILES,"IC50 [1, 3]","EC50 [2, 4]",IC50 [1],EC50 [2]
"CS(=O)(=O)CCCN1Cc2cc(Cl)c3c(Cl)c[nH]c3c2NS1(=O)=O [Compound 77, 6,7-dichloro-3-(3-(methylsulfonyl)propyl)-1,3,4,9-tetrahydro-[1,2,6] thiadiazino[4,3-g]indole 2,2-dioxide]",680 nM,0.8 nM,–,–
"O=S1(=O)Nc2c(cc(Cl)c3c(Cl)c[nH]c23)CN1CC1CCCO1 (centres unmarked) [Compound 89, 6,7-dichloro-3-((tetrahydrofuran-2-yl)methyl)-1,3,4,9-tetrahydro-[1,2,6] thiadiazino[4,3-g]indole 2,2-dioxide]",574 nM,0.8 nM,–,–
"O=S1(=O)Nc2c(cc(Cl)c3c(Cl)c[nH]c23)CN1CC1CCCNC1 (centres unmarked) [Compound 90, 6,7-dichloro-3-(piperidin-3-ylmethyl)-1,3,4,9-tetrahydro-[1,2,6] thiadiazino[4,3-g]indole 2,2-dioxide]",–,–,274 nM,1 nM
"CC(=O)N1CCCC(CN2Cc3cc(Cl)c4c(Cl)c[nH]c4c3NS2(=O)=O)C1 (centres unmarked) [Compound 91, 1-(3-((6,7-dichloro-2,2-dioxido-4,9-dihydro-[1,2,6]thiadiazino[4,3-g]indol-3(1H)-yl)methyl)piperidin-1-yl) ethan-1-one]",51.8 nM,0.4 nM,–,–
"O=C(CN1Cc2cc(Cl)c3c(Cl)c[nH]c3c2NS1(=O)=O)N1CCOCC1 [Compound 92, 2-(6,7-dichloro-2,2-dioxido-4,9-dihydro-[1,2,6]thiadiazino[4,3-g]indol-3(1H)-yl)-1-morpholinoethan-1-one]",965 nM,0.7 nM,–,–
"O=S1(=O)Nc2c(cc(Cl)c3c(Cl)c[nH]c23)CN1CC1CCCOC1 (centres unmarked) [Compound 95, 6,7-dichloro-3-((tetrahydro-2H-pyran-3-yl)methyl)-1,3,4,9-tetrahydro-[1,2,6] thiadiazino[4,3-g]indole 2,2-dioxide]",94.9 nM,1.2 nM,–,–
"O=S1(=O)Nc2c(cc(Cl)c3c(Cl)c[nH]c23)CN1CC1CCCCO1 (centres unmarked) [Compound 96, 6,7-dichloro-3-((tetrahydro-2H-pyran-2-yl)methyl)-1,3,4,9-tetrahydro-[1,2,6] thiadiazino[4,3-g]indole 2,2-dioxide]",215 nM,1.2 nM,–,–
"O=c1cc(CN2Cc3cc(Cl)c4c(Cl)c[nH]c4c3NS2(=O)=O)c(Cl)c[nH]1 [Compound 98, 5-chloro-4-((6,7-dichloro-2,2-dioxido-4,9-dihydro-[1,2,6]thiadiazino [4,3-g]indol-3(1H)-yl)methyl)pyridin-2(1H)-one]",181 nM,2.3 nM,–,–
"COCCN1Cc2cc(F)c3c(C#N)c[nH]c3c2NS1(=O)=O [Compound 99, 6-fluoro-3-(2-methoxyethyl)-1,3,4,9-tetrahydro-[1,2,6] thiadiazino[4,3-g]indole-7-carbonitrile 2,2-dioxide]",30800 nM,212 nM,–,–

# Further lines, with some results ahead:
"IC50 [1, 3]","EC50 [2, 4]",SMILES,IC50 [1],EC50 [2]
1240 nM,123 nM,"Cn1ccc(CN2Cc3cc(Cl)c4c(Cl)c[nH]c4c3NS2(=O)=O)cc1=O [Compound 61, 4-((6,7-dichloro-2,2-dioxido-4,9-dihydro-[1,2,6]thiadiazino[4,3-g]indol-3(1H)-yl)methyl)-1-methylpyridin-2(1H)-one]",–,–
1070 nM,155 nM,"Cn1c(CN2Cc3cc(Cl)c4c(Cl)c[nH]c4c3NS2(=O)=O)cccc1=O [Compound 62, 6-((6,7-dichloro-2,2-dioxido-4,9-dihydro-[1,2,6]thiadiazino[4,3-g]indol-3(1H)-yl)methyl)-1-methylpyridin-2(1H)-one]",–,–
1170 nM,0.7 nM,"Nc1ccc(CN2Cc3cc(Cl)c4c(Cl)c[nH]c4c3NS2(=O)=O)cc1 [Compound 78, 3-(4-aminobenzyl)-6,7-dichloro-1,3,4,9-tetrahydro-[1,2,6]thiadiazino[4,3-g]indole 2,2-dioxide]",–,–
19500 nM,8.9 nM,"COCCN1Cc2cc(F)c3c(Cl)c[nH]c3c2NS1(=O)=O [Compound 79, 7-chloro-6-fluoro-3-(2-methoxyethyl)-1,3,4,9-tetrahydro-[1,2,6] thiadiazino[4,3-g]indole 2,2-dioxide]",–,–
1810 nM,18.2 nM,"O=S1(=O)Nc2c(ccc3c(Cl)c[nH]c23)CN1C1CCCOC1 (centres unmarked) [Compound 80, 7-chloro-3-(tetrahydro-2H-pyran-3-yl)-1,3,4,9-tetrahydro-[1,2,6]thiadiazino[4,3-g]indole 2,2-dioxide]",–,–
32000 nM,17.7 nM,"COCCN1Cc2ccc3c(Cl)c[nH]c3c2NS1(=O)=O [Compound 81, 7-chloro-3-(2-methoxyethyl)-1,3,4,9-tetrahydro-[1,2,6] thiadiazino[4,3-g]indole 2,2-dioxide]",–,–
3320 nM,1.1 nM,"O=S1(=O)Nc2c(ccc3c(Cl)c[nH]c23)CN1c1cccnc1 [Compound 82, 7-chloro-3-(pyridin-3-yl)-1,3,4,9-tetrahydro-[1,2,6]thiadiazino[4,3-g]indole 2,2-dioxide]",–,–
231 nM,1.6 nM,"O=S1(=O)Nc2c(cc(Cl)c3c(Cl)c[nH]c23)CN1CC1CC(O)C1 (centres unmarked) [Compound 88, 6,7-dichloro-3-((3-hydroxycyclobutyl)methyl)-1,3,4,9-tetrahydro-[1,2,6]thiadiazino[4,3-g]indole 2,2-dioxide]",–,–
773 nM,1.6 nM,"C=CCN1Cc2cc(Cl)c3c(Cl)c[nH]c3c2NS1(=O)=O [Compound 93, 3-allyl-6,7-dichloro-1,3,4,9-tetrahydro-[1,2,6] thiadiazino[4,3-g]indole 2,2-dioxide]",–,–
362 nM,2.9 nM,"O=S1(=O)Nc2c(cc(Cl)c3c(Cl)c[nH]c23)CN1CCC1COC1 [Compound 94, 6,7-dichloro-3-(2-(oxetan-3-yl)ethyl)-1,3,4,9-tetrahydro-[1,2,6] thiadiazino[4,3-g]indole 2,2-dioxide]",–,–
–,1.7 nM,"O=c1[nH]ccc(CN2Cc3cc(Cl)c4c(Cl)c[nH]c4c3NS2(=O)=O)c1Cl [Compound 97, 3-chloro-4-((6,7-dichloro-2,2-dioxido-4,9-dihydro-[1,2,6]thiadiazino [4,3-g]indol-3(1H)-yl)methyl)pyridin-2(1H)-one]",–,–
≥ 100000 nM,168 nM,"COCCN1Cc2ccc3c(C#N)c[nH]c3c2NS1(=O)=O [Compound 100, 3-(2-methoxyethyl)-1,3,4,9-tetrahydro-[1,2,6] thiadiazino[4,3-g]indole-7-carbonitrile 2,2-dioxide]",–,–
